Tests used:
Type in all cases: biochemical
[1] = target: other PRDX family members and a panel of kinases; test: Kinase selectivity assay (whole panel); conditions: whole panel of Table S1; read-out: IC50 against other PRDX family members and a panel of kinases
Experimental: The selectivity of CP1 for PRDX1 was evaluated through kinase selectivity assays against other PRDX family members and a panel of kinases. The experiments were conducted by ICE Biosciences (Beijing, China).

FGFR3 = target: T1, FGFR3 (Homo sapiens, UniProt P22607); test: Kinase selectivity assay; conditions: target FGFR3; read-out: CP1 IC50
T1 construct: assay run by ICE Biosciences (Beijing, China)
How it was run: (§1)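 Kinase selectivity testing was performed by an external contract lab, in which CP1 was assayed against related peroxiredoxins and assorted kinases to gauge specificity relative to PRDX1.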

FLT4 = target: T2, FLT4 (Homo sapiens, UniProt P35916); test: Kinase selectivity assay; conditions: target FLT4; read-out: CP1 IC50
T2 construct: assay run by ICE Biosciences (Beijing, China)
How it was run: as §1

Measured: IC50

T1 sequence (P22607 23-806): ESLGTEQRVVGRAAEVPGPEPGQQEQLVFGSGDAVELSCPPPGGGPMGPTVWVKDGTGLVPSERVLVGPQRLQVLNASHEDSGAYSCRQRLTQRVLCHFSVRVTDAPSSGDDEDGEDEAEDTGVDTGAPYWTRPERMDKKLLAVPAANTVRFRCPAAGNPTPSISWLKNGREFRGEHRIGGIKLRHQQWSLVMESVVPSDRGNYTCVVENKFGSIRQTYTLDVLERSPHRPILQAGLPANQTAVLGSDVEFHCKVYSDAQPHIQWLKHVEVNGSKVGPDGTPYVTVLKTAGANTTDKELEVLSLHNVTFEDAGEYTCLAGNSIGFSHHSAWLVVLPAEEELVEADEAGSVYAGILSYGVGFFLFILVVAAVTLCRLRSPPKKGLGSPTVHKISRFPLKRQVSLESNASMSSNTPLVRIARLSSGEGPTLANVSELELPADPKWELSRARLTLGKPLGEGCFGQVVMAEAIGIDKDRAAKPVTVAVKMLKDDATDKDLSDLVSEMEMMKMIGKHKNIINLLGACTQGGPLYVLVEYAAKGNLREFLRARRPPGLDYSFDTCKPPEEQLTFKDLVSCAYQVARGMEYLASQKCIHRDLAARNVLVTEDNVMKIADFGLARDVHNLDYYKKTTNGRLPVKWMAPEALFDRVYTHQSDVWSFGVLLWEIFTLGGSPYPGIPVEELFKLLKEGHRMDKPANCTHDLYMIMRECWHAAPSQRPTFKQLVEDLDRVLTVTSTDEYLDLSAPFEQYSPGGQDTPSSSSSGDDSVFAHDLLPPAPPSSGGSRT
T2 sequence (P35916 25-1363): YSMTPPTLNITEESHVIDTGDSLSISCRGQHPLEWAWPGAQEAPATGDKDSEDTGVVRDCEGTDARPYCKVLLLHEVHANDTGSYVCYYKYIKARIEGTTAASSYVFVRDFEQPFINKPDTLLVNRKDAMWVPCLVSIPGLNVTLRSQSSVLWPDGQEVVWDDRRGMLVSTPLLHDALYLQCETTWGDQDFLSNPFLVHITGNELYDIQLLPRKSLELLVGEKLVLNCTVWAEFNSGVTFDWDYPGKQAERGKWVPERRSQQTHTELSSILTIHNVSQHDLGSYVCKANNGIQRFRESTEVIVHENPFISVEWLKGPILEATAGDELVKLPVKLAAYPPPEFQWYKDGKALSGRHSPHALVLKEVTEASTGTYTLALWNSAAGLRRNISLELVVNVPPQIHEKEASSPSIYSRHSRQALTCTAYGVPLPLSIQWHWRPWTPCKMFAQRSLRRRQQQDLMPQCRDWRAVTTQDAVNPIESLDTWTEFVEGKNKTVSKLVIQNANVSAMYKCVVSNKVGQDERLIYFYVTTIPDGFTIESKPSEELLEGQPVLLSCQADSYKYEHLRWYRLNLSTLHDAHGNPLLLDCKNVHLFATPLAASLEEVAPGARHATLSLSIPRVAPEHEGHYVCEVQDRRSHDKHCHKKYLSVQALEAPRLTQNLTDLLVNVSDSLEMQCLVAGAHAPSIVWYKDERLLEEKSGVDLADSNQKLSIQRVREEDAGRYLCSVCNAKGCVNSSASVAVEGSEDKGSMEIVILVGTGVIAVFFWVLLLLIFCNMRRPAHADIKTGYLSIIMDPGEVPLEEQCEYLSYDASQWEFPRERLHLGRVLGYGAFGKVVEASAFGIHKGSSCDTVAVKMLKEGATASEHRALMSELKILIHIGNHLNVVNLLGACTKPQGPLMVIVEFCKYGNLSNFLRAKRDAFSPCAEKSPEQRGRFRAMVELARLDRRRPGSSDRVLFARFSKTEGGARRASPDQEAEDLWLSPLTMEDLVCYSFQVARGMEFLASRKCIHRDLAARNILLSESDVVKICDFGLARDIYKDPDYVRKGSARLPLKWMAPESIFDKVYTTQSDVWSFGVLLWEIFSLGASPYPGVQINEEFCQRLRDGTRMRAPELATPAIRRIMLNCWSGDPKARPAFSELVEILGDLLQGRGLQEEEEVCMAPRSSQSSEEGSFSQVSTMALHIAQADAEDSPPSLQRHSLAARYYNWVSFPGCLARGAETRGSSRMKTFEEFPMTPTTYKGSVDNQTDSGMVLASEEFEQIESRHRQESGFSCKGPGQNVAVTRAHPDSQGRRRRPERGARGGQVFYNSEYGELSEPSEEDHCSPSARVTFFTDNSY

CC1=C(CC(=O)/C=C/c2cccc(CO)c2)C(=O)C=C2C1=CC=C1[C@@]2(C)CC[C@@]2(C)C3C[C@](C)(C(=O)CCc4nc(C(O)C(O)O)c(C)nc4C)CC[C@]3(C)CC[C@]12C (stereo partly drawn) [CP1]
> 30 µM: all assays above
